# In paper PMC10547238, “Discovery of Potent Tetrazole Free Fatty Acid Receptor 2 Antagonists” (Journal of Medicinal Chemistry, 2023):
# Values joined by “and” are separate entries in the source; they are usually repeats but may differ in a detail not shown here. Equal entries are not always repeated.
# Legend:
# [1] = Chemical stability in PBS7.4; type: physicochemical
# Experimental: Duplicates of 1 mL of a 50 μM solution were prepared by adding the 10 mM stock solution to a 1.5 mL Eppendorf tube and diluting it with PBS7.4. The Eppendorf tubes were incubated at 37 °C with gentle shaking (650 rpm) using an Eppendorf Thermomixer. The samples were briefly vortexed, and 50 μL aliquots were withdrawn at the time points 0, 12, 48, etc.; added to 250 μL vials; and analyzed immediately by HPLC. The chemical stability in PBS7.4 was determined at every time point in percentage relative to the 0 h time point.
# Microsomal stability = type: in vitro ADME, mouse
# Experimental: The assay was performed in duplicates essentially as described previously,[58] using male CD1 mouse liver microsomes (Thermo Fischer Scientific, 20 mg/mL), NADPH-regenerating agent Solution A and Solution B (Promega), potassium phosphate buffer (100 mM, pH 7.4), and test compounds (1 mM, diluted from 10 mM DMSO stock in the buffer). The samples were analyzed in an Agilent 6130 Mass Spectrometer instrument using electron spray ionization (ESI) coupled to an Agilent 1200 HPLC system (ESI-LCMS) with a C18 reverse phase column (Zorbax Eclipse XBD-C18, 4.6 mm × 50 mm) using a linear gradient of the binary solvent system of 100% mobile phase A (water:MeCN:formic acid, 95:5:0.1 v/v%) to 100% mobile phase B (MeCN:formic acid, 100:0.1 v/v %) in 6 min, with a flow rate of 1 mL/min.
# To a pre-warmed solution of potassium phosphate buffer (135.6 μL) in an Eppendorf tube at 37 °C were added Solution A (7.5 μL), Solution B (1.5 μL), microsomes (3.9 μL), and the test compound (1 mM, 1.5 μL, final concentration = 10 μM). The tube was briefly vortexed and incubated at 37 °C in a thermomixer. At 0, 15, 30, 45, and 60 min, 25 μL of each sample was transferred to an ice-cold solution containing an internal standard (5 μM in MeCN, 12.5 μL). The sample was briefly vortexed and centrifuged for 5 min at 10.000g. The supernatant (25 μL) was transferred to HPLC vial and analyzed by ESI-LCMS in single ion mode. The data was analyzed using GraphPad Prism (version 9).
# [2] = Lipophilicity (logD7.4), octanol/PBS7.4 shake flask; type: physicochemical; conditions: 1-octanol/PBS7.4, pH 7.4; mean of two independent experiments
# Experimental: The assay was performed in duplicates essentially as previously described.[58] A glass vial with a screw cap (8 mL) was charged with the test compound (40 μL, 10 mM in DMSO), PBS7.4 (0.01 M, 1980 μL), and 1-octanol (1980 μL). The vial was capped and sealed with a Parafilm and shaken at 700 rpm using an IKA KS 125 basic shaker for 24 h at 25 °C. The Parafilm was removed, and the sample was allowed to equilibrate for 1 h before analysis. One hundred microliters of the octanol phase was withdrawn and diluted 1:10 with MeOH (+0.1% TFA)/MilliQ water (4:1, v/v) and analyzed by HPLC. The interface was removed, and the PBS7.4 phase analyzed directly by HPLC. All analysis was performed in duplicates, and log D7.4 values were calculated from the peak areas (mAU·min) and adjusted for difference in injection volume and concentration-absorption effects from the solvents, using two calibration points per compound per solvent, and dilution of the octanol phase.
# human FFA2-eYFP = target: T1, human FFA2-eYFP (Homo sapiens, UniProt O15552); test: [35S]GTPγS incorporation assay, membranes of Flp-In T-Rex 293 cells; type: biochemical; conditions: for GTPγS pIC50: hFFA2, propionate at EC80, mean ± SEM, three or more experiments; for LLEGTPγS: pIC50, GTPγS – ClogP
# T1 construct: expressed in transfected cells; host or cells: membranes of Flp-In T-Rex 293 cells induced to express the construct
# T1 sequence (O15552 1-330): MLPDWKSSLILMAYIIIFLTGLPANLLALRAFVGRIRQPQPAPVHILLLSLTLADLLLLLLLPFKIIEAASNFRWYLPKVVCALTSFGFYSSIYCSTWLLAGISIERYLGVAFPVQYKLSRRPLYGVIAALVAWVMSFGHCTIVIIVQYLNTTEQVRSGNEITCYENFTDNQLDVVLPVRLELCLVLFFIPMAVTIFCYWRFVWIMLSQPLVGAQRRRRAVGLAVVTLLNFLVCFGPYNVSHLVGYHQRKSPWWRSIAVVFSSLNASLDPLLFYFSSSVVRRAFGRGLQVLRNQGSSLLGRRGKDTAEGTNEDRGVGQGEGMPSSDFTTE
# [3] = Kinetic aqueous solubility; type: physicochemical; conditions: phosphate buffer; kinetic solubility in PBS at pH 7.4 and 25 °C
# Experimental: Twenty microliters of a 10 mM compound stock solution in DMSO was added to an Eppendorf tube containing 980 μL of phosphate buffer (10 mM, pH = 7.4). The samples were incubated in an Eppendorf Thermomixer (25 °C, 800 rpm) for 24 h. Afterward, the samples were centrifuged for 5 min at 11,000 rpm and the supernatant was filtered (0.2 μm PTFE membrane) before analysis by HPLC. Each compound was analyzed in duplicate. The solubility was calculated from the peak area relative to the reference samples (200 μM in MeOH/MilliQ H2O, 60/40, v/v).
# [4] = remaining, PBS7.4 at 37 °C, 10 days
# [5] = % recovered after 60 min, mouse liver microsomes
SMILES,"chemical stability [1, 4] [%]",chemical stability ([1]; supplementary CSV) [%],microsomal stability (Microsomal stability; [5]) [%],in vitro clearance (Microsomal stability; mouse liver microsomes),microsomal stability (Microsomal stability; supplementary CSV) [%],logD at 25 h [2],GTPγS pIC50 (human FFA2-eYFP),IC50 (human FFA2-eYFP; inhibition of propionate at FFA2),LLEGTPγS (human FFA2-eYFP),solubility at 24 h [3] [µM]
"COc1cccc(CC(=O)N[C@@H](Cc2ccc(C(F)(F)F)cc2)Cc2nnn[nH]2)c1 [Compound 16l, (S)-N-(1-(1H-Tetrazol-5-yl)-3-(4-(trifluoromethyl)phenyl)propan-2-yl)-2-(3-methoxyphenyl)acetamide]",>95,>95,93,low in vitro clearance,93,0.84 ± 0.01,8.46 ± 0.05,3 to 4 nM and 4 nM,5.98,176
"O=C(O)C[C@H](Cc1ccc(C(F)(F)F)cc1)NC(=O)Cc1cccc(Cl)c1 [Compound 3, reference compound]",90,–,91,–,–,1.39 ± 0.01,6.68 ± 0.05,–,2.47,166
"O=C(Cc1cncc(Br)c1)N[C@@H](Cc1ccc(C(F)(F)F)cc1)Cc1nnn[nH]1 [Compound 16w, (S)-3-(2-((1-(1H-Tetrazol-5-yl)-3-(4-(trifluoromethyl)phenyl)propan-2-yl)amino)-2-oxoethyl)-5-bromopyridin-1-ium 2,2,2-trifluoroacetate]",>95,>95,92,low in vitro clearance,92,0.71 ± 0.06,8.21 ± 0.09,–,6.28,183
